Laboratory results as given in publication PMC10762035, “Molecular basis of human trace amine-associated receptor 1 activation” (Nature Communications, 2024).
Numbering of substitutions follows the chain as printed. Where “and” joins values, the source holds several entries; their conditions need not be identical. Equal entries are not always repeated.

What was measured:
Assay type in all cases: cell-based
[1] = target: T1, hTA1 C88S (Homo sapiens, UniProt Q96RJ0, C88S); assay: GloSensor cAMP accumulation assay, C88S mutant; details: C88S
T1 construct: expressed in transfected cells; host or cells: HEK293T
T1 sequence (Q96RJ0 1-339 C88S): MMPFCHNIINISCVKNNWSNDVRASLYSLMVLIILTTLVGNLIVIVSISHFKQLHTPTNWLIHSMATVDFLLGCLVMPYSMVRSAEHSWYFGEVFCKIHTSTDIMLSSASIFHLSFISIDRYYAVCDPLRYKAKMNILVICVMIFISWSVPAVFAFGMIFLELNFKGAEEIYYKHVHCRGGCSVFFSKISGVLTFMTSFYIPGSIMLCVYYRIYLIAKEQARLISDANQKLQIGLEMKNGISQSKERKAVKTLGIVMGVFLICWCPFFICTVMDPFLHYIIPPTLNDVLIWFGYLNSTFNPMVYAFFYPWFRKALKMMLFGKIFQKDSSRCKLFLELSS

[2] = target: T2, hTA1 S107C (Homo sapiens, UniProt Q96RJ0, S107C); assay: GloSensor cAMP accumulation assay, S107C mutant;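 also: cells transiently co-expressing receptor and GloSensor biosensor, luminescence read after 30 min agonist exposure at room temperature, concentration-response fitted by nonlinear regression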
T2 construct: expressed in transfected cells; host or cells: HEK293T
T2 sequence (Q96RJ0 1-339 S107C): T1 sequence (Q96RJ0 1-339 C88S) with S88C, S107C

[3] = target: T3, hTA1 I290Y (Homo sapiens, UniProt Q96RJ0, I290Y); assay: GloSensor cAMP accumulation assay, I290Y mutant; details: for cAMP accumulation response, normalized (concentration-response source data, single replicate values): hTA1 I290Y (N=3), log[Compound];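 as to cAMP accumulation response, normalized (concentration-response source data, single replicate values): normalized to the maximum response of β-PEA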
T3 construct: expressed in transfected cells; host or cells: HEK293T
T3 sequence (Q96RJ0 1-339 I290Y): T1 sequence (Q96RJ0 1-339 C88S) with S88C, I290Y

[4] = target: T4, hTA1 F195T (Homo sapiens, UniProt Q96RJ0, F195T); assay: GloSensor cAMP accumulation assay, F195T mutant;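 also: cells transiently co-expressing HA-FLAG-tagged hTA1 and the GloSensor cAMP biosensor, luminescence read 30 min after agonist addition at room temperature, concentration-response fitted by nonlinear regression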
T4 construct: expressed in transfected cells; host or cells: HEK293T
T4 sequence (Q96RJ0 1-339 F195T): T1 sequence (Q96RJ0 1-339 C88S) with S88C, F195T

[5] = target: T5, hTA1 T271A (Homo sapiens, UniProt Q96RJ0, T271A); assay: GloSensor cAMP accumulation assay, T271A mutant
T5 construct: expressed in transfected cells; host or cells: HEK293T
T5 sequence (Q96RJ0 1-339 T271A): T1 sequence (Q96RJ0 1-339 C88S) with S88C, T271A

NCCc1ccc(Oc2ccc(O)cc2)c(I)c1 [T1AM, 3-iodothyronamine]
Emax values ([1]; Mean of fit per experiment): 51.5909 and 77.2309 | pEC50 values ([1]; Mean of fit per experiment): 6.196 and 6.127 | Span ± SEM (Emax normalized to β-PEA) ([1]; n=2): 64.41 | pEC50 ± SEM ([1]; n=2): 6.16 ± 0.04 | EC50 ([1]; n=2, read-out: EC50): 0.69 µM | ΔEmax values (each mutant value - WT average) ([2]; S107C mutant minus WT average): 9.303 | Emax values, Mean ([2]; S107C mutant, β-PEA = 100, each line an independent experiment, 3 replicates): 79.7491 and 64.3505 | Span ± SEM (Emax normalized to β-PEA) ([2]; S107C, n=2): 72.05 ± 7.70 | pEC50 ± SEM ([2]; S107C, n=2): 5.87 ± 0.53 | EC50 ([2]; S107C, n=2, read-out: EC50): 1.35 µM | Span ± SEM (Emax normalized to β-PEA) ([3]; I290Y): 68.94 ± 4.39 | pEC50 ± SEM ([3]; I290Y): 6.05 ± 0.08 | EC50 ([3]; I290Y, read-out: EC50): 0.889 µM | pEC50 values, Mean ([3]; I290Y, single experiments (3 replicates each)): 6.088 and 6.268 and 5.798 | Emax values, Mean ([3]; I290Y, single experiments (3 replicates each), β-PEA = 100): 77.2061 and 62.2509 and 67.3555 | cAMP accumulation response, normalized (concentration-response source data, single replicate values) ([3]; M = -5): 82.7627 and 66.4498 and 84.9173 and 54.2232 and 60.0862 and 58.254 and 61.3384 and 53.4426 and 63.5944 | cAMP accumulation response, normalized (concentration-response source data, single replicate values) ([3]; M = -5.522): 50.7524 and 44.2888 and 57.216 and 57.1547 and 52.391 and 42.1307 and 35.395 and 42.1629 and 29.7552 | cAMP accumulation response, normalized (concentration-response source data, single replicate values) ([3]; M = -6): 45.5199 and 34.7472 and 39.6719 and 40.665 and 36.2677 and 35.5349 and 24.1153 and 32.0111 and 19.6034 | cAMP accumulation response, normalized (concentration-response source data, single replicate values) ([3]; M = -6.522): 32.5927 and 17.8187 and 23.9745 and 21.6102 and 23.076 and 24.1753 and 17.3474 and 11.7076 (2×) | cAMP accumulation response, normalized (concentration-response source data, single replicate values) ([3]; M = -7): 19.6655 and 9.201 and 18.4343 and 8.4185 and 1.456 and 10.9836 and 6.068 and 3.812 and 4.9397 | cAMP accumulation response, normalized (concentration-response source data, single replicate values) ([3]; M = -7.522): 3.968 and -2.188 and 2.737 and 2.189 and -3.307 and -4.04 and -0.7002 and 0.4278 and -1.828 | cAMP accumulation response, normalized (concentration-response source data, single replicate values) ([3]; M = -8): 2.429 and 0.2746 and -0.0332 and -1.842 and -5.873 and -3.674 and -2.956 and -4.0841 and -0.7002 | cAMP accumulation response, normalized (concentration-response source data, single replicate values) ([3]; M = -8.522): 0.2746 and -3.111 and -0.341 and -6.605 (2×) and -5.873 and -4.0841 (2×) and -5.212 | cAMP accumulation response, normalized (concentration-response source data, single replicate values) ([3]; M = -9): -1.88 and -2.803 and -1.572 and 0.7233 and -0.376 and -4.773 and -6.34 and -4.0841 (2×) | cAMP accumulation response, normalized (concentration-response source data, single replicate values) ([3]; M = -9.522): -1.88 and -3.7267 and -2.188 and -6.605 and -1.109 and -4.407 and -4.0841 (2×) and -6.34 | cAMP accumulation response, normalized (concentration-response source data, single replicate values) ([3]; M = -10): -0.0332 and -2.496 and -1.572 and -6.605 and -6.972 and 4.021 and -2.956 (2×) and -6.34 | cAMP accumulation response, normalized (concentration-response source data, single replicate values) ([3]; M = -10.522): -1.572 | ΔpEC50 values (each mutant value - WT average), Mean ([4]; F195T mutant minus WT average, Figure 5B): -0.7125 and -0.7788 | pEC50 values, Mean ([4]; F195T mutant, Figure 5B, each row one independent experiment (3 replicates)): 5.417 and 5.35 | Emax values, Mean ([4]; F195T mutant, Figure 5B, β-PEA = 100, each row one independent experiment (3 replicates)): 72.2975 and 58.7221 | Span ± SEM (Emax normalized to β-PEA) ([4]; F195T, n=2): 65.51 ± 6.79 | pEC50 ± SEM ([4]; F195T, n=2): 6.67 ± 1.32 | EC50 ([4]; F195T, n=2, read-out: EC50): 0.213 µM | ΔpEC50 values (each mutant value - WT average), Mean ([5]; T271A mutant minus WT average, Figure 5B): -0.6347 and -0.7159 | pEC50 values, Mean ([5]; T271A mutant, Figure 5B, each row one independent experiment (3 replicates)): 5.495 and 5.413 | Emax values, Mean ([5]; T271A mutant, Figure 5B, β-PEA = 100, each row one independent experiment (3 replicates)): 41.9229 and 94.6558 | Span ± SEM (Emax normalized to β-PEA) ([5]; T271A, n=2): 68.29 | pEC50 ± SEM ([5]; T271A, n=2): 5.45 ± 0.03 | EC50 ([5]; T271A, n=2, read-out: EC50): 3.52 µM
